# Test results published in patent publication US20210121527A1, “METHODS OF TREATING MINIMAL RESIDUAL CANCER” (ICAHN SCHOOL OF MEDICINE AT MOUNT SINAI, priority 2018, published 2021).
# Key:
# [1] = test system: MCF10A-HER2, ZR75.1, SKBR3; experiment: 3D acini cultures in Matrigel, cleaved caspase-3 and P-histone H3; assay type: cell-based, human; conditions: 2 μM, 10 days
# Experimental: Reagents, cell culture, and treatments: EGF was obtained from PeproTech (Rocky Hill, N.J.) and used at 100 ng/ml. Thapsigargin was from Sigma (St. Louis, Mo.) and used at 2 nM. The ZR75.1-H2B-Dendra2 cell line was generated by stable transfection of the H2B-Dendra2 plasmid (Gurskaya et al., “Engineering of a Monomeric Green-to-Red Photoactivatable Fluorescent Protein Induced by Blue Light,” Nat. Biotechnol. 24:461-465 (2006), which is hereby incorporated by reference in its entirety). For 3D cultures, MCF10A-HER2, SKBR3, and ZR75.1-H2B-Dendra2 cells were plated in growth factor-reduced Matrigel (Corning, Corning, N.Y.) and grown as described previously (Avivar-Valderas et al., “Regulation of Autophagy during ECM Detachment is Linked to a Selective Inhibition of mTORC1 by PERK,” Oncogene 32(41):4932-40 (2013), which is hereby incorporated by reference in its entirety). When referring to “low density,” 3,500 cells/8-well were seeded, and for “high density” 20,000 cells/8-well. Treatments with vehicle (DMSO) or LY4 (2 μM) were replaced every 24 hours for 2D and every 48 hours for 3D cultures. […]
# [2] = test system: HER2^+ metastases and DCCs; experiment: Metastasis, CTC and DCC quantification in MMTV-HER2 mice; assay type: in vivo, mouse; conditions: 50 mpk i.p. daily, two weeks
# Experimental: Mice, tumor growth, and tissue processing: The FVB/N-Tg (MMTVneu) mouse strain was obtained from Jackson Laboratories (Sacramento, Calif.). […] Before being used in any experiment, females underwent one round of pregnancy and at least two weeks of no lactation after weaning. Females between 24-32 weeks of age were injected intraperitoneally with vehicle (90% corn oil, 10% ethanol) or LY4 (50 mpk) daily, for two weeks. For the combination treatment, females 24-32 weeks of age were treated daily by oral gavage with Abemaciclib (50 mpk) for 4 weeks before starting the treatment described earlier with LY4. Tumor volumes were measured using the formula (Dxd^2)/2, where D is the longest and d is the shortest diameter. For CTC count, animals were anesthetized and whole blood was extracted by cardiac puncture. Mammary glands, lungs, and tumors were collected and fixed in 10% buffered formalin overnight before paraffin embedding. The bone marrow from the two lower limbs was flushed with a 26 G needle and further processed by Ficoll density gradient centrifugation. For CTC as well as for DTC detection in bone marrow, tissues were depleted of mature hematopoietic cells by anti-mouse antibody-labeled magnetic bead separation (Miltenyi Biotec, San Diego, Calif.) before fixation in formalin for 20 minutes at 4° C.
# IHC and IF: IHC and IF from paraffin-embedded sections was performed as previously described (Avivar-Valderas et al., “Regulation of Autophagy during ECM Detachment is Linked to a Selective Inhibition of mTORC1 by PERK,” Oncogene 32(41):4932-40 (2013), which is hereby incorporated by reference in its entirety). Briefly, slides were dewaxed and serially rehydrated. Heat-induced antigen retrieval was performed in either citrate buffer (10 mM, pH 6), EDTA buffer (1 mM, pH 8), or Tris/EDTA (pH9). Slides were further permeabilized in 0.1% Triton™-X100, blocked and incubated with primary antibody overnight at 4° C. at 1:50-1:200 dilution. For IHC, an additional step of endogenous peroxidase and avidin/biotin quenching was performed before primary antibody incubation. […] Next, slides were incubated in secondary antibodies (Life Technologies, Norwalk, Conn.) and mounted. For IHC, sections were processed using VectaStain ABC Elite kit (Vector Laboratories, Bulingame, Calif.) and DAB Substrate kit for peroxidase labelling (Vector Laboratories) and mounted in VectaMount medium (Vector laboratories). For IF, sections were mounted in ProLong Gold Antifade aqueous medium (Thermo Fisher, Waltham, Mass.).
# In the case of immunocytofluorescence, cytospins of fixed cells (100,000-200,000 cells/cytospin were prepared by cyto-centrifugation at 500 rpm for 3 minutes on poly-prep slides, and the staining protocol was performed as explained below from the permeabilization onward. For the staining of 3D cultures, acini were fixed in 4% PFA for 20 minutes at 4° C., permeabilized with 0.5% Triton™-X100 in PBS for 20 minutes at room temperature, washed in PBS-glycine, and then blocked with 10% normal goat serum for 1 hour at 37° C., before performing immunofluorescence staining.
# [3] = test system: ZR75.1 HER2^+ cells; experiment: 3D Matrigel culture of ZR75.1-H2B-Dendra2 cells at low or high density, live cells; assay type: cell-based, human; conditions: 2 μM, day 2 to day 8, 3D Matrigel
# Experimental: Reagents, cell culture, and treatments: EGF was obtained from PeproTech (Rocky Hill, N.J.) and used at 100 ng/ml. Thapsigargin was from Sigma (St. Louis, Mo.) and used at 2 nM. The ZR75.1-H2B-Dendra2 cell line was generated by stable transfection of the H2B-Dendra2 plasmid (Gurskaya et al., “Engineering of a Monomeric Green-to-Red Photoactivatable Fluorescent Protein Induced by Blue Light,” Nat. Biotechnol. 24:461-465 (2006), which is hereby incorporated by reference in its entirety). For 3D cultures, MCF10A-HER2, SKBR3, and ZR75.1-H2B-Dendra2 cells were plated in growth factor-reduced Matrigel (Corning, Corning, N.Y.) and grown as described previously (Avivar-Valderas et al., “Regulation of Autophagy during ECM Detachment is Linked to a Selective Inhibition of mTORC1 by PERK,” Oncogene 32(41):4932-40 (2013), which is hereby incorporated by reference in its entirety). When referring to “low density,” 3,500 cells/8-well were seeded, and for “high density” 20,000 cells/8-well. Treatments with vehicle (DMSO) or LY4 (2 μM) were replaced every 24 hours for 2D and every 48 hours for 3D cultures.
compound,measurement,setting,value
"Cc1cc(NC(=O)[C@H](O)c2cc(F)cc(F)c2)ccc1-c1cnc(N)c(C(=O)NC(C)C)c1 [LY4, 2-amino-5-[4-[[(2R)-2-(3,5-difluorophenyl)-2-hydroxy-acetyl]amino]-2-methyl-phenyl]-N-isopropyl-pyridine-3-carboxamide]",apoptosis (cleaved caspase-3) in 3D acini,[1],significantly increased the levels of apoptosis (cleaved caspase-3)
same,proliferation in 3D acini (phospho-histone H3),[1],a significant change in the levels of proliferation as detected by phospho-histone H3 levels was not observed
same,HER2^+ circulating tumor cells in blood,[2],no significant difference between vehicle and LY4-treated animals
same,area of macro-metastases,[2],without affecting the area of these metastases
same,number and incidence of lung macro-metastases (>100 cells),[2],reduced the number and the incidence of macro-metastases
same,number of DCCs in bone marrow,[2],significantly decreased the number of DCCs found in bone marrow
same,number of P-Rb negative single DCCs in lung sections,[2],strongly reduced the number of non-proliferating (P-Rb negative) single DCCs
same,number of P-Rb positive solitary DTCs in lung,[2],without affecting the number of P-Rb positive solitary DTCs
same,number of lung micro-metastases (2-100 cells),[2],significant decrease in the number of micro-metastases
same,survival of quiescent single cells (low density),[3],eradicated the quiescent single ZR75.1 HER2^+ cells
same,viability of cells seeded at high density,[3],no significant effect on the viability
